The assay has as its target recombinant human PAI-1 (Homo sapiens, UniProt P05121). Description: Test Example 2: Human PAI-1 Inhibitory Activity (pH 7.4 HEPES buffer, 10 minutes incubation with two-chain tPA). Format: biochemical. On the set-up: purchased Molecular Innovations, Inc. To be noted: for inhibition at 0.1 µM / inhibition at 0.3 µM / inhibition at 1 µM / inhibition at 3 µM: read-out: Inhibition Rate of PAI-1 Activity (%). How it is done:
0.1 M HEPES, 0.1 M NaCl. 1 mM EDTA. 0.1 % Polyethylene glycol 8,000 (Hampton Research Corporation),
2 mM Dimethyldecylphoshine oxide [Apo-10] (Fluka Corporation)

pIC50: −log10 of the molar value.

recombinant human PAI-1, sequence (P05121 24-402): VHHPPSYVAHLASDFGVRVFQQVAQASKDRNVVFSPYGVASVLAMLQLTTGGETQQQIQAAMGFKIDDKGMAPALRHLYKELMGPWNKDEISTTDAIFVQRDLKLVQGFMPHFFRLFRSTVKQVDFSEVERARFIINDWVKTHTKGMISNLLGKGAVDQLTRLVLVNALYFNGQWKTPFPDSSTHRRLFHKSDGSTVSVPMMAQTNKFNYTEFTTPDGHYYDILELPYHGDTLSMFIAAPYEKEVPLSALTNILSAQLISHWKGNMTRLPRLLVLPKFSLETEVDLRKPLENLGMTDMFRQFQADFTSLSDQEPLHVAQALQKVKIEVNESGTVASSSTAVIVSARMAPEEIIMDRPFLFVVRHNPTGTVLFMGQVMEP

As for `CCCCCOc1cc(-c2ccc(OC(F)(F)F)cc2)cc(OCc2ccc(C(C)(C)C)cc2)c1OCC(=O)O` [Compound 301], the inhibition (as a rule, the percentage by which the read-out fell short of the control) at 0.1 µM worked out at 15%; the inhibition at 0.3 µM turned out to be 25%; the inhibition at 1 µM was 96%; the inhibition at 3 µM came out at 97%.

Take `CC(C)(C)c1ccc(Oc2ccc(-c3ccc(OC(F)(F)F)cc3)cc2OCC(=O)O)cc1` [Compound 302]: the inhibition at 0.1 µM came out at 0%, the inhibition at 0.3 µM is 9%, the inhibition at 1 µM was 27% and the inhibition at 3 µM came out at 98%.

On to `CCCCC(Oc1cc(-c2ccc(OC(F)(F)F)cc2)ccc1Oc1ccc(C(C)(C)C)cc1)C(=O)O` (centres unmarked) [Compound 303], for which the inhibition at 0.1 µM stood at 0%, the inhibition at 0.3 µM was determined as 13%, the inhibition at 1 µM came out at 87% and the inhibition at 3 µM is 94%.

In the case of `CC(C)(C)c1ccc(COc2cc(-c3ccc(OC(F)(F)F)cc3)ccc2OCC(=O)O)cc1` [Compound 304], the inhibition at 0.1 µM stood at 3%, the inhibition at 0.3 µM turned out to be 1%, the inhibition at 1 µM was 23% and the inhibition at 3 µM amounted to 99%.

As to `CCCCC(Oc1ccc(-c2ccc(OC(F)(F)F)cc2)cc1Oc1ccc(C(C)(C)C)cc1)C(=O)O` (centres unmarked) [Compound 305], the inhibition at 0.1 µM is 6%, the inhibition at 0.3 µM is 9%, the inhibition at 1 µM worked out at 54% and the inhibition at 3 µM was determined as 88%.

As for `CCCCC(Oc1cc(-c2ccc(OC(F)(F)F)cc2)ccc1OCCCCc1ccccc1)C(=O)O` (centres unmarked) [Compound 306], the inhibition at 0.1 µM is 0%, the inhibition at 0.3 µM is 0%, the inhibition at 1 µM turned out to be 72% and the inhibition at 3 µM was 97%.

Take `CCCCC(Oc1cc(-c2ccc(OC(F)(F)F)cc2)ccc1Oc1ccccc1)C(=O)O` (centres unmarked) [Compound 307]: the inhibition at 0.1 µM stood at 0%, the inhibition at 0.3 µM amounted to 1%, the inhibition at 1 µM was 22% and the inhibition at 3 µM is 91%.

On to `CCCCC(Oc1cc(Oc2ccc(OC(F)(F)F)cc2)ccc1OCc1ccc(C(C)(C)C)cc1)C(=O)O` (centres unmarked) [Compound 308], for which the inhibition at 0.1 µM was found to be 0%, the inhibition at 0.3 µM came to 22%, the inhibition at 1 µM was determined as 63% and the inhibition at 3 µM was determined as 95%.

Consider `CCCCC(Oc1cc(Oc2ccc(OC(F)(F)F)cc2)ccc1OCCCCc1ccccc1)C(=O)O` (centres unmarked) [Compound 309], for which the inhibition at 0.1 µM stood at 1%, the inhibition at 0.3 µM stood at 17%, the inhibition at 1 µM worked out at 66% and the inhibition at 3 µM came to 91%.

Regarding `CCCCC(Oc1ccc(-c2ccc(OC(F)(F)F)cc2)cc1OCc1ccc(C(C)(C)C)cc1)C(=O)O` (centres unmarked) [Compound 310], the inhibition at 0.1 µM was determined as 11%, the inhibition at 0.3 µM was found to be 19%, the inhibition at 1 µM was found to be 72% and the inhibition at 3 µM is 96%.

In the case of `CCCCC(Oc1ccc(-c2ccc(OC(F)(F)F)cc2)cc1OCCCCc1ccccc1)C(=O)O` (centres unmarked) [Compound 311], the inhibition at 0.1 µM was determined as 0%, the inhibition at 0.3 µM came out at 11%, the inhibition at 1 µM was found to be 77% and the inhibition at 3 µM is 97%.

As to `CCCCC(Oc1cc(Oc2ccc(OC(F)(F)F)cc2)ccc1Oc1ccc(C(C)(C)C)cc1)C(=O)O` (centres unmarked) [Compound 312], the inhibition at 0.1 µM amounted to 17%, the inhibition at 0.3 µM was 24%, the inhibition at 1 µM was 87% and the inhibition at 3 µM is 94%.

Take `CCCCC(Oc1cc(-c2ccc(OC(F)(F)F)cc2)ccc1OCc1ccc(C(C)(C)C)cc1)C(=O)O` (centres unmarked) [Compound 313]: the inhibition at 0.1 µM is 1%, the inhibition at 0.3 µM came to 3%, the inhibition at 1 µM turned out to be 52% and the inhibition at 3 µM amounted to 93%.

`CC(C)(C)c1ccc(Oc2ccc(-c3cccc(C(F)(F)F)c3)cc2OCC(=O)O)cc1` [Compound 314]: the inhibition at 0.1 µM was 0%, the inhibition at 0.3 µM came to 5%, the inhibition at 1 µM stood at 22% and the inhibition at 3 µM stood at 93%.

On to `CC(C)(C)c1ccc(Oc2cc(-c3cccc(C(F)(F)F)c3)ccc2OCC(=O)O)cc1` [Compound 315], for which the inhibition at 0.1 µM came to 13%, the inhibition at 0.3 µM was determined as 16%, the inhibition at 1 µM was 60% and the inhibition at 3 µM was > 99%.

For the compound `Cc1cccc(-c2ccc(Oc3ccc(C(C)(C)C)cc3)c(OCC(=O)O)c2)c1` [Compound 316], the inhibition at 0.1 µM stood at 10%, the inhibition at 0.3 µM stood at 8%, the inhibition at 1 µM turned out to be 28% and the inhibition at 3 µM stood at 84%.

As for `CCCCC(Oc1cc(-c2cccc(C)c2)ccc1Oc1ccc(C(C)(C)C)cc1)C(=O)O` (centres unmarked) [Compound 317], the inhibition at 0.1 µM amounted to 14%, the inhibition at 0.3 µM turned out to be 16%, the inhibition at 1 µM came to 79% and the inhibition at 3 µM was 94%.

Take `CCCCC(Oc1cc(-c2cccc(C(F)(F)F)c2)ccc1Oc1ccc(C(C)(C)C)cc1)C(=O)O` (centres unmarked) [Compound 318]: the inhibition at 0.1 µM came out at 8%, the inhibition at 0.3 µM worked out at 20%, the inhibition at 1 µM is 90% and the inhibition at 3 µM was > 99%.

`Cc1cccc(-c2ccc(OCC(=O)O)c(Oc3ccc(C(C)(C)C)cc3)c2)c1` [Compound 319]: the inhibition at 0.1 µM amounted to 0%, the inhibition at 0.3 µM is 9%, the inhibition at 1 µM turned out to be 17% and the inhibition at 3 µM was 70%.

Take `CCCCC(Oc1ccc(-c2cccc(C(F)(F)F)c2)cc1Oc1ccc(C(C)(C)C)cc1)C(=O)O` (centres unmarked) [Compound 320]: the inhibition at 0.1 µM is 1%, the inhibition at 0.3 µM was found to be 9%, the inhibition at 1 µM came to 70% and the inhibition at 3 µM stood at 98%.

As for `CCCCC(Oc1ccc(-c2cccc(C)c2)cc1Oc1ccc(C(C)(C)C)cc1)C(=O)O` (centres unmarked) [Compound 321], the inhibition at 0.1 µM came out at 3%, the inhibition at 0.3 µM came to 15%, the inhibition at 1 µM is 86% and the inhibition at 3 µM was determined as 94%.

For `CCCCCCC(Oc1cc(-c2ccc(OC(F)(F)F)cc2)ccc1Oc1ccccc1)C(=O)O` (centres unmarked) [Compound 322], the inhibition at 0.1 µM worked out at 0%, the inhibition at 0.3 µM was found to be 4%, the inhibition at 1 µM amounted to 69% and the inhibition at 3 µM was 92%.

Regarding `CCCCCCC(Oc1cc(-c2ccc(OC(F)(F)F)cc2)ccc1Oc1ccc(C(C)(C)C)cc1)C(=O)O` (centres unmarked) [Compound 323], the inhibition at 0.1 µM was 19%, the inhibition at 0.3 µM was 16%, the inhibition at 1 µM turned out to be 91% and the inhibition at 3 µM was 82%.

As for `CCCCC(Oc1cc(-c2ccc(OC(F)(F)F)cc2)ccc1OCCCCc1ccc(F)cc1)C(=O)O` (centres unmarked) [Compound 324], the inhibition at 0.1 µM is 0%, the inhibition at 0.3 µM was found to be 1%, the inhibition at 1 µM came out at 66% and the inhibition at 3 µM was found to be 97%.

Take `CCCCC(Oc1cc(-c2ccc(OC(F)(F)F)cc2)ccc1OCCCCc1ccc(Cl)cc1)C(=O)O` (centres unmarked) [Compound 325]: the inhibition at 0.1 µM was determined as 11%, the inhibition at 0.3 µM is 5%, the inhibition at 1 µM is 85% and the inhibition at 3 µM was found to be 91%.

Regarding `CCCCCCC(Oc1cc(-c2ccc(OC(F)(F)F)cc2)ccc1Oc1ccc(OC(F)(F)F)cc1)C(=O)O` (centres unmarked) [Compound 326], the inhibition at 0.1 µM was determined as 0%, the inhibition at 0.3 µM was 28%, the inhibition at 1 µM amounted to 94% and the inhibition at 3 µM worked out at 94%.

With `CCCCCCC(Oc1cc(-c2ccc(OC(F)(F)F)cc2)ccc1Oc1ccc(C(F)(F)F)cc1)C(=O)O` (centres unmarked) [Compound 327], the inhibition at 0.1 µM was determined as 0%, the inhibition at 0.3 µM was 15%, the inhibition at 1 µM is 94% and the inhibition at 3 µM was 95%.

Take `CC(C)(C)c1ccc(Oc2ccc(-c3ccc(C(F)(F)F)cc3)cc2OCC(=O)O)cc1` [Compound 328]: the inhibition at 0.1 µM is 0%, the inhibition at 0.3 µM is 14%, the inhibition at 1 µM is 30% and the inhibition at 3 µM is > 99%. In addition, where the note is “human PAI-1, calculated from the inhibition rates”, the pIC50 (commonly the IC50 on a negative log10 scale, so that one unit is a factor of ten) was 5.84.

For the compound `CC(C)(C)c1ccc(Oc2ccc(-c3cccc(OC(F)(F)F)c3)cc2OCC(=O)O)cc1` [Compound 329], the inhibition at 0.1 µM was 6%, the inhibition at 0.3 µM was determined as 11%, the inhibition at 1 µM is 28% and the inhibition at 3 µM worked out at 98%.

For `CC(C)(C)c1ccc(Oc2cc(-c3ccc(C(F)(F)F)cc3)ccc2OCC(=O)O)cc1` [Compound 330], the inhibition at 0.1 µM stood at 0%, the inhibition at 0.3 µM was determined as 1%, the inhibition at 1 µM was found to be 47% and the inhibition at 3 µM worked out at 96%.

As for `CC(C)(C)c1ccc(Oc2cc(-c3cccc(OC(F)(F)F)c3)ccc2OCC(=O)O)cc1` [Compound 331], the inhibition at 0.1 µM amounted to 2%, the inhibition at 0.3 µM came out at 1%, the inhibition at 1 µM was found to be 83% and the inhibition at 3 µM was found to be 98%.

In the case of `CC(C)(C)c1ccc(Oc2cc(-c3cccc(C(F)(F)F)c3)ccc2CCC(=O)O)cc1` [Compound 332], the inhibition at 0.1 µM came out at 12%, the inhibition at 0.3 µM was found to be 4%, the inhibition at 1 µM was 29% and the inhibition at 3 µM was > 99%.

On to `CC(C)c1ccc(Oc2cc(-c3ccc(OC(F)(F)F)cc3)ccc2OCC(=O)O)cc1` [Compound 333], for which the inhibition at 0.1 µM was found to be 4%, the inhibition at 0.3 µM stood at 10%, the inhibition at 1 µM turned out to be 28% and the inhibition at 3 µM came out at 91%.

For `CC(C)(C)c1ccc(Oc2cc(-c3ccc(OC(F)(F)F)cc3)ccc2CC(=O)O)cc1` [Compound 334], the inhibition at 0.1 µM was 0%, the inhibition at 0.3 µM turned out to be 1%, the inhibition at 1 µM came out at 21% and the inhibition at 3 µM amounted to 87%.

Source of the values: patent EP2272817A1, “PAI-1 INHIBITOR” (Institute of Medicinal Molecular Design, Inc., priority 2008, dated 2009).
